Measured values taken from patent US6599936B1, “Anti-sebum skin care cosmetic compositions containing branched esters” (Unilever Home & Personal Care USA division of Conopco, Inc., priority 1999, dated 2003).
Read-outs that look alike come from different tables or passages of the source.

How the values were obtained:
Assay type in all cases: cell-based
human sebocytes = assay: Sebocyte assay: 14C-acetate label remaining in sebocytes (sebum suppression in vitro); conditions: for sebum suppression, result in words: conclusion drawn from Tables 1-5; for inhibition at 0.001 %: 0.001% test agent; for inhibition at 0.01 %: 0.01% test agent
Protocol: Secondary cultures of human sebocytes obtained from an adult […] were grown in 48-well or 96-well tissue culture plates (Costar Corp.; Cambridge, Mass.) until three days post-confluence. Sebocyte growth medium consisted of Clonetics Keratinocyte Basal Medium (KBM) supplemented With 14 μg/ml bovine pituitary extract, 0.4 μ/ml hydrocortisone, 5 μ/ml insulin, 10ng/ml epidermal growth factor, 1.2×10^−10 M cholera toxin, 100 units/ml penicillin, and 100 μg/ml streptomycin. All cultures were incubated at 37° C. in the presence of 7.5% CO2. Medium was changed three times per week.
On the day of experimentation, the growth medium was removed and the sebocytes washed three times with sterile Dulbecco's Modified Eagle Medium (DMEM; phenol red free). Fresh DMEM was added to each sample (triplicates) with 1-5 microliter of test agent solubilized in ethanol. Controls consisted of addition of ethanol alone. Each plate was returned to the incubator for 20 hours followed by the addition of ^14C-acetate buffer (5 mM final concentration, 56 mCi/mmol specific activity). Sebocytes were returned to the incubator for four hours afterwhich each culture was rinsed three times with phosphate buffered saline to remove unbound label. Radioactive label remaining in the sebocytes was harvested and counted using a Beckman scintillation counter. Statistical significance (p value) was calculated using student's t-test. Phenol Red, a known sebum suppressive agent, was employed as a positive control.

[1] = tested on: Neonatal human dermal fibroblasts; assay: Procollagen I production by fibroblasts, slot blot
Protocol: Neonatal human dermal fibroblasts were purchased from Clonetics Corp., San Diego, Calif. All materials for cell culture were purchased from Life Technologies, NY and used in passages 5-10. Cells were seeded at a density of approximately 7,500/well in the inner 48 wells of a 96-well plate in a medium containing DMEM (Dulbecco's Modified Eagle's Medium), high-glucose supplemented with 2 mM L-glutamine, 10% fetal bovine serum, and antibiotic and antimycotic solutions). Cells were then grown to confluence for 2 days. At confluence, the medium was removed and cells were washed with serum-free DMEM, and each well dosed with 200 μl of a solution of a test compound in serum-free DMEM. Each dosing was replicated in the total of six wells. […] After 24 hours, the test compound solution or the control solution was removed and cells redosed with 100 μl of a solution of a test compound in serum-free DMEM. After 24 hours, the test compound solution or the control solution was removed and stored over the weekend at 4° C. with protease inhibitor (Aprotinin from Sigma) in a ratio of aprotinin to water of 1:200. The test compound solution was then diluted in DMEM (approximately 20 μl sample in 200 μl DMEM).
Nitrocellulose membrane and 3 sheets of filter paper were soaked in TRIS buffered saline (TBS, pH 7.3.). BioRad slot blot apparatus (BioRad Labs, CA) was set up with filter paper on bottom, membrane on top, tightened. […] TBS was added per well. Vacuum was used to suck wells through membrane. The diluted test compound solution or control was vortexed, then 100 μl was loaded per well and gravity dried. Procollagen from the test solution was bound to the membrane at this point in the procedure. Membrane was removed from the apparatus, excess cut off, and bottom right corner notched for orientation. The membrane was placed in blocking solution (5% milk powder in Dulbecco's phosphate buffered saline) overnight at 4° C., with shaking. The membrane was then incubated for 1.5 hrs at room temperature with 1.5 mL Rat Anti-Human Procollagen Amino-Terminal Ab (Chemicon MAB1912) in TBS with 0.1% BSA (ratio of antibody to buffer/BSA was 1:100) in a sealed bag with shaking. The membrane was then removed; washed 3 times for 5 minutes in TBS/0.1% Tween. The membrane was then incubated for 1 hour at room temperature in 2 mL of Biotinylated Anti-Rat Peroxidase-Conjugated Ab (Vector Labs) in TBS with 0.1% BSA (ratio of antibody to buffer/BSA was 1:1000) in a sealed bag with shaking.
The membrane was washed 3 times for 5 minutes in TBS/0.1%Tween. 3 mL PBS was incubated with 30 μl each of solutions A and B from Vectastain Kit for 30 minutes. The membrane was placed in the resulting solution for 30 minutes in a sealed bag with shaking. The membrane was then removed and washed twice for 5 minutes in TBS/0.1% Tween. The membrane was then stained using the following solution:
12.5 mg 3-amino 9-ethyl carbazole (Sigma)
3.125 (approximately) mL DMF (N,N-dimethylformamide, from Sigma)
The membrane was stained until color developed and the reaction stopped with 2 washes for 10 minutes in tap water. A transparency of the blot was prepared using a color copier. Blot was scanned on Bio-Rad GS-700 Image Analysis densitometer and volume (OD*mm^2) of color/slot determined using molecular analysis software. Fold increase was calculated as a ratio of densitometer reading for cells treated with a test compound over control.

[2] = tested on: Neonatal human dermal fibroblasts; assay: Glycosaminoglycan synthesis by fibroblasts, Alcian Blue dot blot; conditions: Table 7, glycosaminoglycans
Protocol: Neonatal human dermal fibroblasts were seeded at a density of approximately 50,000/well in a 12-well plate in a medium containing DMEM (high glucose supplemented with 2 mM L-glutamine, 10% fetal bovine serum, antibiotic and antimycotic solutions). Cells were then grown to confluence for 2 days. At confluence, each well was rinsed in serum-free DMEM and the cells dosed with test compounds (in triplicate) in 750 μL of serum-free DMEM. After 24 hours, this medium was aspirated and the treatment step repeated. After a second 24-hour period, this medium, containing the soluble GAGs, was collected and frozen until analysis.
A positively-charged Zeta Probe membrane was soaked in sterile water and placed into the Dot-Blot Apparatus (both Bio-Rad Labs, Hercules, Calif.). 100 μL of water was applied to each well and pulled through using a vacuum. After thawing, 100 μL of test solution samples or standards (Hyaluronic acid or Chondroitin Sulfate from bovine trachea, Sigma, St. Louis, Mo.) was applied to the membrane and allowed to gravity filter (about 1.5-2 hours). GAGs were now bound to membrane. The membrane was blocked in 3% w/v fatty acid free bovine serum albumin (Sigma) in water for one hour. A dye solution of 0.5% w/v Alcian Blue dye (ICN Biochemicals, Cleveland, Ohio.) in 3% acetic acid, pH approximately 2.3, was made. The membrane was washed twice in distilled water and then stained in the dye solution on a rotary shaker for 15 minutes. The dye was poured off and the membrane destained twice for 15 minutes each time in 3% acetic acid. The membrane was rinsed in water and left to dry overnight. The blot was scanned on Bio-Rad GS-700 Image Analysis Densitometer and volume (OD*mm^2) of color/slot determined using molecular analyst software. Fold increase over control was calculated as a ratio of densitometer reading for cells treated with a test compound over control.

[3] = Homo sapiens, 0.5 h, Table 4, 30 minute incubation, 48 well plate, read-out: % Reduction
[4] = Table 6B, 0.0046% test compound
[5] = Table 6B, positive control, concentration not given
[6] = positive control, concentration not given
[7] = Homo sapiens, 20 h, Table 3A, 20 hour incubation, 96 well plate, read-out: % Reduction

CC(C)CCCCCCCCCCOC(=O)c1ccccc1 [Isotridecyl Benzoate]
inhibition at 3.9e-05 % (human sebocytes; Homo sapiens, 20 h, Table 5, 0.000039% test agent, 20 hour incubation, 48 well plate, read-out: % Reduction): 36.3%
inhibition at 0.00039 % (human sebocytes; Homo sapiens, 20 h, Table 5, 0.00039% test agent, 20 hour incubation, 48 well plate, read-out: % Reduction): 52.2%
inhibition at 0.0039 % (human sebocytes; Homo sapiens, 20 h, Table 5, 0.0039% test agent, 20 hour incubation, 48 well plate, read-out: % Reduction): 41.8%
Average OD Reading ([1]; Table 6B, 0.003% test compound): 2.534
Fold increase over control ([1]; Table 6B, 0.003% test compound): 1.3 fold
Average OD Reading ([1]; Table 6B, 0.030% test compound): 2.669
Fold increase over control ([1]; Table 6B, 0.030% test compound): 1.4 fold
Average OD Reading ([2]; 0.003% test compound): 0.22
Fold increase over control ([2]; 0.003% test compound): 0.8 fold
Average OD Reading ([2]; 0.03% test compound): 0.38
Fold increase over control ([2]; 0.03% test compound): 1.5 fold

CCCC(=O)OCCCCCCCCCCC(C)C [Isotridecyl Butyrate]
inhibition at 0.00027 % (human sebocytes; Homo sapiens, 20 h, Table 3C, 0.00027% test agent, 20 hour incubation, 48 well plate, read-out: % Reduction): 4.1%
inhibition at 0.0027 % (human sebocytes; Homo sapiens, 20 h, Table 3C, 0.0027% test agent, 20 hour incubation, 48 well plate, read-out: % Reduction): 17.2%
sebum suppression, result in words (human sebocytes): not effective sebum suppressive agents

CCCCCCCCC(=O)OCCCCCCCCCCC(C)C [Isotridecyl Nonanoate]
inhibition at 0.001 % (human sebocytes; Homo sapiens, 20 h, Table 3B, 20 hour incubation, 48 well plate, read-out: % Reduction): 0.7%
inhibition at 0.1 % (human sebocytes; Homo sapiens, 20 h, Table 3B, 0.1% test agent, 20 hour incubation, 48 well plate, read-out: % Reduction): 0.8%
sebum suppression, result in words (human sebocytes): not effective sebum suppressive agents

CC(C)CCCCCCCCCCOC(=O)c1ccccc1O [Isotridecyl salicylate]
inhibition at 0.005 % (human sebocytes; Homo sapiens, 0.5 h, Table 4, 0.005% test agent, 30 minute incubation, 48 well plate, read-out: % Reduction): 24.6%
inhibition at 0.01 % (human sebocytes; [3]): 48.9%
sebum suppression, result in words (human sebocytes): effective in suppressing sebum

CCCCCCCCCCCCCOC(=O)c1ccccc1O [Straight Chain TDS, tridecyl salicylate]
inhibition at 0.01 % (human sebocytes; [3]): 1.3%

CCCCC/C=C\C/C=C\CCCCCCCC(=O)OCCCCCCCCCCC(C)C [Isotridecyl Linoleate]
inhibition at 4.6e-05 % (human sebocytes; Homo sapiens, 20 h, Table 5, 0.000046% test agent, 20 hour incubation, 48 well plate, read-out: % Reduction): 57.3%
inhibition at 0.00046 % (human sebocytes; Homo sapiens, 20 h, Table 5, 0.00046% test agent, 20 hour incubation, 48 well plate, read-out: % Reduction): 50.9%
inhibition at 0.0046 % (human sebocytes; Homo sapiens, 20 h, Table 5, 0.0046% test agent, 20 hour incubation, 48 well plate, read-out: % Reduction): 44.9%
Average OD Reading [1, 4]: 2.346
Fold increase over control [1, 4]: 1.2 fold
Average OD Reading ([1]; Table 6B, 0.046% test compound): 2.4585
Fold increase over control ([1]; Table 6B, 0.046% test compound): 1.3 fold
Average OD Reading ([2]; 0.0046% test compound): 0.40
Fold increase over control ([2]; 0.0046% test compound): 1.5 fold
Average OD Reading ([2]; 0.046% test compound): 0.29
Fold increase over control ([2]; 0.046% test compound): 1.1 fold

CCCCCCCCCC(=O)OCCCCCCCCCCC(C)C [Isotridecyl Decanoate]
sebum suppression, result in words (human sebocytes): not effective sebum suppressive agents

TGF-b
Average OD Reading ([1]; Table 6A, test compound 0.01%, densitometer volume (OD*mm^2)): 6.787
Fold increase over control ([1]; Table 6A, test compound 0.01%, ratio of densitometer reading over control): 1.9 fold
Average OD Reading [1, 5]: 4.099
Fold increase over control [1, 5]: 2.1 fold
Average OD Reading [2, 6]: 0.86
Fold increase over control [2, 6]: 3.3 fold

CCCCCCCCCCCCCC(=O)OC(C)C [Isopropyl Myristate, Isopropyl myristate]
inhibition at 0.001 % (human sebocytes; [7]): -6.3%
inhibition at 0.01 % (human sebocytes; [7]): 4%
sebum suppression, result in words (human sebocytes): not an effective sebum suppressor

O=S1(=O)OC(c2ccc(O)cc2)(c2ccc(O)cc2)c2ccccc21 [Phenol Red]
inhibition at 0.001 % (human sebocytes; Homo sapiens, 20 h, Table 1, 20 hour incubation, 48 well plate, read-out: % Reduction): 19.6%
inhibition at 0.001 % (human sebocytes; [7]): 14%
inhibition at 0.01 % (human sebocytes; [7]): 71.2%
